Measured values: patent publication US5114926A, “Tetrapeptide inhibiting the entry into cycle of hemopoietic stem cells processes for its preparation, and its uses” (Institut National De La Sante Et De La Recherche Medicale, priority 1986, dated 1992)
Values joined by “and” are separate entries in the source; they are usually repeats but may differ in a detail not shown here. Identical values can stand only once. Where a SMILES comes first, the peptide text is derived from it.

What was measured:
CFU-S [1] = experiment: in vivo inhibition of the entry into cycle of the CFU-S induced by an injection of Ara-C; parameters: species or system mice of Balb/C or CBA strain; conditions: for % of CFU-S in DNA synthesis: protocol II, i.p.; for biological activity compared with the natural peptide: synthetic versus natural peptide, tables I, II and III
Method: The biological activity of the fractions is measured by in vivo inhibition tests of the entry into cycle of the CFU-S, induced by an injection of Ara-C.
The CFU-S of the mouse, normally quiescent, enter into cycle after an injection of Ara-C.
The number of CFU-S is determined by the technique of J. E. Till and E. A. McCulloch, Radiat. Res. 14, (1961), 213-222, whose principle rests on the capacity of CFU-S to form macroscopic colonies in the spleen. These colonies are clones descended from one CFU-S.
The proportion of CFU-S in S phase is determined by the method of A. J. Becker et al., Blood, 26, (1965), 296-308, based on the principle of cellular suicides. The incubation of the cells with a tritiated thymidine (precursor of DNA) solution leads to the selective death of the cells in phase of DNA synthesis by integration of a lethal dose of radioactivity (tritium) into the DNA molecule.
The tests are performed on SPF (Specific Pathogen Ffree)mice of Balb/C or CBA strain, aged from 2 to 3 months.
1. The control groups receive by the i.p. route the following treatment:
Time 0: Ara-C (10 mg--protocol I or 20 mg--protocol II) dissolved in 0.2 ml of saline;
Time 6H: 0.2 ml of saline;
Time 8H: sacrifice (protocol I);
Time 12H: sacrifice (protocol II).
2. The treated groups receive by the i.p. route:
Time 0: Ara-C (10 mg--protocol I or 20 mg--protocol II) dissolved in 0.2 ml of saline.
Time 6h: fraction to be tested dissolved in 0.2 ml of saline;
Time 8H: sacrifice (protocol I):
Time 12H: sacrifice (protocol II). [drawing 1]
For each of the groups, the bone marrow of the animals is collected and suspended in 2 ml of Medium 199 (EUROBIO). After the numbering and suitable dilution, 2 aliquots of 5×10^6 nucleated cells are incubated at 37° C. for 20 min. either with 1 ml of Medium 199 (Test A), or with 1 ml of tritiated thymidine (200 μCi) (Test B). A cellular suspension of 0.2 ml containing 8×10^4 to 1.2×10^5 nucleated cells is injected intravenously into the retro-orbital sinus of the irradiated receiver animals (9 Gy, 8 mice per experimental plot). Nine days later, the receiver mice are sacrificed, their spleen taken out and fixed in Bouin fluid (1% picric acid: 720 g; formol: 240 g; acetic acid: 4 g, per 1 l of fluid). After some hours of fixation, the nodules visible macroscopically are counted.
If N and N' are the average numbers of the nodules obtained on the spleens of the receivers having received cells coming form tests A and B respectively, the proportion of CFU-S in phase of DNA synthesis is calculated by the formula: [formula]

[2] = lethality in the treated mice; format: in vivo; conditions: at the doses used
CFU-S [3] = experiment: toxicity with respect to CFU-S; format: in vivo, mice; conditions: at the doses used
EMT6 tumor = experiment: regression of EMT6 tumors under Ara-C plus inhibitor; format: in vivo, mice; conditions: EMT6 tumor carriers, Ara-C at 0, 7, 24 and 30 hours, inhibitor at 26 hours
[4] = survival of animals treated with lethal doses of Ara-C; format: in vivo, mice; conditions: Ara-C 4×925 mg/kg at 0, 7, 24 and 30 hours; tested fraction once at 26 hours
Method: The animals receive fractionated doses of Ara-C (4×925 mg/kg) at times 0, 7, 24 and 30 hours. The tested fraction is administered at once 26 hours after the first injection of Ara-C. The survival of the animals is estimated 15-30 days after the treatment.

Nc1ccn([C@@H]2O[C@H](CO)[C@@H](O)[C@@H]2O)c(=O)n1 [Ara-C, cytosine arabinoside, reference compound]
percentages of CFU-S in phase of DNA synthesis (CFU-S [1]; ARA-C alone, Table III batch A series (5 exp.)): 40.7 ± 9.3% | percentages of CFU-S in phase of DNA synthesis (CFU-S [1]; ARA-C alone, Table III batch B series (2 exp.)): 47.4 ± 9% | percentages of CFU-S in phase of DNA synthesis, mean (CFU-S [1]; ARA-C alone, mean of Table II tests 1-8): 38.7% | percentages of CFU-S in phase of DNA synthesis, mean (CFU-S [1]; ARA-C alone, mean of Table III series A and B): 44.1% | % of CFU-S in DNA synthesis (CFU-S [1]; Ara-C (20 mg) alone): 43 ± 9%

CC(=O)N[C@@H](CO)C(=O)N[C@@H](CC(=O)O)C(=O)N[C@@H](CCCCN)C(=O)N1CCC[C@H]1C(=O)O [inhibitor, n--acetyl-seryl-aspartyl-lysyl-proline] (Ac-SDKP-OH)
lethality in the treated mice [2]: does not result in any lethality | toxicity with respect to CFU-S (CFU-S [3]): devoided of toxicity with respect to CFU-S | percentages of CFU-S in phase of DNA synthesis (CFU-S [1]; ARA-C + natural peptide 100 ng/mouse, bone marrow batch A (5 exp.)): 12.6 ± 14.8% | percentages of CFU-S in phase of DNA synthesis (CFU-S [1]; ARA-C + natural peptide 100 ng/mouse, bone marrow batch B (2 exp.)): 2.99 ± 13% | percentages of CFU-S in phase of DNA synthesis, mean (CFU-S [1]; ARA-C + natural peptide, mean of batches A and B): 7.8% | % of CFU-S in DNA synthesis (CFU-S [1]; Ara-C (20 mg) + inhibitor (100 ng per mouse)): 7 ± 4% | dosage at which the fraction is active in the mouse (CFU-S [1]; homogeneous fraction after reverse phase HPLC): about 100 ng/mouse | entry of the CFU-S into DNA synthesis (S phase) (CFU-S [1]; inhibitor injected 6 hours after Ara-C): prevents the entry of the CFU-S into DNA synthesis | effect on the therapeutic action of Ara-C with respect to tumor cells (EMT6 tumor): does not prevent the therapeutic action of Ara-C with respect to tumor cells | survival of the treated animals (EMT6 tumor; comparable with bone marrow grafting): permits the survival of the treated animals | survival of the animals 15-30 days after the treatment [4]: enabled the definitive survival of a large number of animals

CC(=O)N[C@@H](CO)C(=O)N[C@@H](CC(=O)O)C(=O)N[C@@H](CCCCN)C(=O)N1CCC[C@H]1C(=O)O [synthetic tetrapeptide, Ac-S-D-K-P--OH] (Ac-SDKP-OH)
percentages of CFU-S in phase of DNA synthesis (CFU-S [1]; ARA-C + synthetic tetrapeptide 25 ng/mouse, test 6, second synthesis): 19% | percentages of CFU-S in phase of DNA synthesis (CFU-S [1]; ARA-C + synthetic tetrapeptide 50 ng/mouse, test 5, second synthesis): 13% | percentages of CFU-S in phase of DNA synthesis (CFU-S [1]; ARA-C + synthetic tetrapeptide 100 ng/mouse, tests 4, 7, 8, second synthesis): 6% and 10% | percentages of CFU-S in phase of DNA synthesis, mean (CFU-S [1]; ARA-C + synthetic tetrapeptide, mean of tests 1-8 (25-100 ng/mouse)): 10.5% | biological activity compared with the natural peptide (CFU-S [1]): possesses the biological properties of the natural peptide | biological activity compared with the natural peptide (CFU-S [1]; listed as synthetic peptide): quite similar activity to that obtained with a natural peptide
